Key:
Format in all cases: functional
[1] = test system: LOX IMVI; assay: Cytotoxicity against human LOXIMVI cells assessed as cell growth at 10^-4 M after 48 hrs by SRB assay relative to control; conditions: read-out: Activity
[2] = test system: K562; assay: Cytotoxicity against human K562 cells assessed as cell growth at 10^-7 M after 48 hrs by SRB assay relative to control; conditions: K562, 48 h, read-out: Activity
[3] = test system: MCF7; assay: Cytotoxicity against human MCF7 cells assessed as cell growth at 10^-7 M after 48 hrs by SRB assay relative to control; conditions: MCF7, 48 h, read-out: Activity
[4] = test system: HCC 2998; assay: Cytotoxicity against human HCC2998 cells assessed as cell growth at 10^-7 M after 48 hrs by SRB assay relative to control; conditions: HCC 2998, 48 h, read-out: Activity
[5] = Cytotoxicity against human OVCAR5 cells assessed as cell growth at 10^-7 M after 48 hrs by SRB assay relative to control; conditions: OVCAR-5, 48 h, read-out: Activity
[6] = test system: SF-268; assay: Cytotoxicity against human SF268 cells assessed as cell growth at 10^-6 M after 48 hrs by SRB assay relative to control; conditions: SF-268, 48 h, read-out: Activity
[7] = test system: DU-145; assay: Cytotoxicity against human DU145 cells assessed as cell growth at 10^-7 M after 48 hrs by SRB assay relative to control; conditions: DU-145, 48 h, read-out: Activity
[8] = test system: SK-MEL-2; assay: Cytotoxicity against human SK-MEL-2 cells assessed as cell growth at 10^-4 M after 48 hrs by SRB assay relative to control; conditions: SK-MEL-2, 48 h, read-out: Activity
[9] = Cytotoxicity against human Hs 578T cells assessed as cell growth at 10^-8 M after 48 hrs by SRB assay relative to control; conditions: read-out: Activity
[10] = test system: 786-0; assay: Cytotoxicity against human 786-0 cells after 48 hrs by SRB assay; conditions: 786-0, 48 h
[11] = test system: NCI-H23; assay: Cytotoxicity against human NCI-H23 cells assessed as cell growth at 10^-8 M after 48 hrs by SRB assay relative to control; conditions: NCI-H23, 48 h, read-out: Activity
[12] = test system: MDA-MB-231; assay: Cytotoxicity against human MDA-MB-231 cells assessed as cell growth at 10^-7 M after 48 hrs by SRB assay relative to control; conditions: MDA-MB-231, 48 h, read-out: Activity
[13] = Cytotoxicity against human SKOV3 cells assessed as cell growth at 10^-7 M after 48 hrs by SRB assay relative to control; conditions: SK-OV-3, 48 h, read-out: Activity
[14] = test system: SF-295; assay: Cytotoxicity against human SF295 cells after 48 hrs by SRB assay; conditions: SF-295, 48 h; for CC50: read-out: LC50 (the source's name)
[15] = Cytotoxicity against human HCT116 cells assessed as cell growth at 10^-7 M after 48 hrs by SRB assay relative to control; conditions: HCT-116, 48 h, read-out: Activity
[16] = test system: HL-60(TB); assay: Cytotoxicity against human HL-60(TB) cells after 48 hrs by SRB assay; conditions: HL-60, 48 h; for CC50: read-out: LC50 (the source's name)
[17] = test system: LOX IMVI; assay: Cytotoxicity against human LOXIMVI cells after 48 hrs by SRB assay
[18] = test system: A549; assay: Cytotoxicity against human A549 cells assessed as cell growth at 10^-7 M after 48 hrs by SRB assay relative to control; conditions: A549, 48 h, read-out: Activity
[19] = test system: SNB-19; assay: Cytotoxicity against human SNB19 cells assessed as cell growth at 10^-6 M after 48 hrs by SRB assay relative to control; conditions: SNB-19, 48 h, read-out: Activity
[20] = test system: SF-539; assay: Cytotoxicity against human SF539 cells assessed as cell growth at 10^-8 M after 48 hrs by SRB assay relative to control; conditions: SF-539, 48 h, read-out: Activity
[21] = test system: SN12C; assay: Cytotoxicity against human SN12C cells assessed as cell growth at 10^-6 M after 48 hrs by SRB assay relative to control; conditions: read-out: Activity
[22] = Cytotoxicity against human EKVX cells assessed as cell growth at 10^-6 M after 48 hrs by SRB assay relative to control; conditions: read-out: Activity
[23] = test system: SW-620; assay: Cytotoxicity against human SW620 cells assessed as cell growth at 10^-4 M after 48 hrs by SRB assay relative to control; conditions: SW-620, 48 h, read-out: Activity
[24] = Cytotoxicity against human Hs 578T cells after 48 hrs by SRB assay
[25] = Cytotoxicity against human OVCAR5 cells assessed as cell growth at 10^-8 M after 48 hrs by SRB assay relative to control; conditions: OVCAR-5, 48 h, read-out: Activity
[26] = test system: NCI-H226; assay: Cytotoxicity against human NCI-H226 cells after 48 hrs by SRB assay; conditions: NCI-H226, 48 h
[27] = Cytotoxicity against human HCT15 cells assessed as cell growth at 10^-7 M after 48 hrs by SRB assay relative to control; conditions: HCT-15, 48 h, read-out: Activity
[28] = test system: HCC 2998; assay: Cytotoxicity against human HCC2998 cells assessed as cell growth at 10^-8 M after 48 hrs by SRB assay relative to control; conditions: HCC 2998, 48 h, read-out: Activity
[29] = test system: HT-29; assay: Cytotoxicity against human HT-29 cells after 48 hrs by SRB assay; conditions: HT-29, 48 h; for CC50: read-out: LC50 (the source's name)
[30] = test system: SNB-19; assay: Cytotoxicity against human SNB19 cells after 48 hrs by SRB assay; conditions: SNB-19, 48 h; for CC50: read-out: LC50 (the source's name)
[31] = Cytotoxicity against human HCT116 cells assessed as cell growth at 10^-8 M after 48 hrs by SRB assay relative to control; conditions: HCT-116, 48 h, read-out: Activity
[32] = Cytotoxicity against human EKVX cells assessed as cell growth at 10^-4 M after 48 hrs by SRB assay relative to control; conditions: read-out: Activity
[33] = test system: SF-295; assay: Cytotoxicity against human SF295 cells assessed as cell growth at 10^-8 M after 48 hrs by SRB assay relative to control; conditions: SF-295, 48 h, read-out: Activity
[34] = test system: MDA-MB-435; assay: Cytotoxicity against human MDA-MB-435 cells after 48 hrs by SRB assay; conditions: MDA-MB-435, 48 h; for CC50: read-out: LC50 (the source's name)
[35] = Cytotoxicity against human OVCAR5 cells assessed as cell growth at 10^-6 M after 48 hrs by SRB assay relative to control; conditions: OVCAR-5, 48 h, read-out: Activity
[36] = test system: U-251; assay: Cytotoxicity against human U251 cells assessed as cell growth at 10^-8 M after 48 hrs by SRB assay relative to control; conditions: U-251, 48 h, read-out: Activity

Structure (SMILES): COc1ccc(CCN2COc3c([C@@H](C)CCC=C(C)C)ccc(C)c3C2)cc1OC
- growth at 100 µM [1]: -93%
- growth at 0.1 µM [2]: 95%
- growth at 0.1 µM [3]: 90%
- growth at 0.1 µM [4]: 83%
- growth at 0.1 µM [5]: 98%
- growth at 1 µM [6]: 67%
- growth at 0.1 µM [7]: 94%
- growth at 100 µM [8]: -95%
- growth at 0.01 µM [9]: 78%
- LC50 [10]: 8.72 µM
- growth at 0.01 µM [11]: 97%
- growth at 0.1 µM [12]: 82%
- growth at 0.1 µM [13]: 98%
- GI50 [14]: 2.02 µM
- TGI [14]: 6.56 µM
- CC50 [14]: 29 µM
- growth at 0.1 µM [15]: 92%
- GI50 [16]: 4.11 µM
- TGI [16]: 60.9 µM
- CC50 [16]: > 100 µM
- GI50 [17]: 1.77 µM
- LC50 (concentration killing 50% of cells) [17]: 7.96 µM
- TGI [17]: 3.75 µM
- growth at 0.1 µM [18]: 96%
- growth at 1 µM [19]: 95%
- growth at 0.01 µM [20]: 95%
- growth at 1 µM [21]: 87%
- growth at 1 µM [22]: 91%
- growth at 100 µM [23]: -86%
- GI50 [24]: 3.94 µM
- LC50 [24]: 65.2 µM
- TGI [24]: 17.3 µM
- growth at 0.01 µM [25]: 92%
- GI50 [26]: 8.64 µM
- LC50 [26]: 49.1 µM
- TGI [26]: 21.6 µM
- growth at 0.1 µM [27]: 86%
- growth at 0.01 µM [28]: 77%
- GI50 [29]: 2.2 µM
- TGI [29]: 5.73 µM
- CC50 [29]: 22.4 µM
- GI50 [30]: 12.1 µM
- TGI [30]: 42.8 µM
- CC50 [30]: > 100 µM
- growth at 0.01 µM [31]: 98%
- growth at 100 µM [32]: -40%
- growth at 0.01 µM [33]: 81%
- GI50 [34]: 3.11 µM
- TGI [34]: 10.9 µM
- CC50 [34]: 44.9 µM
- growth at 1 µM [35]: 97%
- growth at 0.01 µM [36]: 92%

Structure (SMILES): CC(C)=CCC[C@H](C)c1ccc(C)c2c1OCN(CC1CCNCC1)C2
- growth at 100 µM [1]: -80%
- growth at 0.1 µM [2]: 99%
- growth at 0.1 µM [3]: 97%
- growth at 0.1 µM [4]: 105%
- growth at 0.1 µM [5]: 87%
- growth at 1 µM [6]: 102%
- growth at 0.1 µM [7]: 94%
- growth at 100 µM [8]: -78%
- growth at 0.01 µM [9]: 98%
- GI50 [10]: 12.1 µM
- LC50 [10]: 56.9 µM
- TGI [10]: 26.3 µM
- growth at 0.01 µM [11]: 94%
- growth at 0.1 µM [12]: 101%
- growth at 0.1 µM [13]: 98%
- GI50 [14]: 15.9 µM
- TGI [14]: 34.9 µM
- CC50 [14]: 76.5 µM
- growth at 0.1 µM [15]: 100%
- GI50 [16]: 3.9 µM
- TGI [16]: 18.9 µM
- CC50 [16]: 59.3 µM
- GI50 [17]: 5.87 µM
- LC50 (concentration killing 50% of cells) [17]: 54.6 µM
- TGI [17]: 20.2 µM
- growth at 0.1 µM [18]: 90%
- growth at 1 µM [19]: 94%
- growth at 0.01 µM [20]: 91%
- growth at 1 µM [21]: 102%
- growth at 1 µM [22]: 94%
- growth at 100 µM [23]: -87%
- GI50 [24]: 13.3 µM
- LC50 [24]: 67 µM
- TGI [24]: 29.9 µM
- growth at 0.01 µM [25]: 88%
- GI50 [26]: 17.7 µM
- LC50 [26]: 64.5 µM
- TGI [26]: 33.8 µM
- growth at 0.1 µM [27]: 91%
- growth at 0.01 µM [28]: 111%
- GI50 [29]: 3 µM
- TGI [29]: 8.38 µM
- CC50 [29]: 53 µM
- GI50 [30]: 14 µM
- TGI [30]: 29.4 µM
- CC50 [30]: 61.8 µM
- growth at 0.01 µM [31]: 100%
- growth at 100 µM [32]: -17%
- growth at 0.01 µM [33]: 92%
- GI50 [34]: 6.48 µM
- TGI [34]: 20.9 µM
- CC50 [34]: 53.4 µM
- growth at 1 µM [35]: 85%
- growth at 0.01 µM [36]: 99%

Structure (SMILES): CC(C)=CCC[C@H](C)c1ccc(C)c(CNCC2CCNCC2)c1O
- growth at 100 µM [1]: -79%
- growth at 0.1 µM [2]: 99%
- growth at 0.1 µM [3]: 97%
- growth at 0.1 µM [4]: 95%
- growth at 0.1 µM [5]: 96%
- growth at 1 µM [6]: 92%
- growth at 0.1 µM [7]: 96%
- growth at 100 µM [8]: -70%
- growth at 0.01 µM [9]: 94%
- GI50 [10]: 5.01 µM
- LC50 [10]: > 25 µM
- TGI [10]: 11.5 µM
- growth at 0.01 µM [11]: 94%
- growth at 0.1 µM [12]: 101%
- growth at 0.1 µM [13]: 93%
- GI50 [14]: 3.31 µM
- TGI [14]: 7.53 µM
- CC50 [14]: 17.1 µM
- growth at 0.1 µM [15]: 98%
- GI50 [16]: 5.02 µM
- TGI [16]: 10.2 µM
- CC50 [16]: 20.7 µM
- GI50 [17]: 3.85 µM
- LC50 (concentration killing 50% of cells) [17]: 16.5 µM
- TGI [17]: 7.96 µM
- growth at 0.1 µM [18]: 98%
- growth at 1 µM [19]: 93%
- growth at 0.01 µM [20]: 96%
- growth at 1 µM [21]: 93%
- growth at 1 µM [22]: 92%
- growth at 100 µM [23]: -82%
- GI50 [24]: 6.53 µM
- LC50 [24]: > 25 µM
- TGI [24]: > 25 µM
- growth at 0.01 µM [25]: 96%
- GI50 [26]: 10.4 µM
- LC50 [26]: > 25 µM
- TGI [26]: > 25 µM
- growth at 0.1 µM [27]: 100%
- growth at 0.01 µM [28]: 101%
- GI50 [29]: 4.51 µM
- TGI [29]: 9.45 µM
- CC50 [29]: 19.8 µM
- GI50 [30]: 3.99 µM
- TGI [30]: > 25 µM
- CC50 [30]: > 25 µM
- growth at 0.01 µM [31]: 100%
- growth at 100 µM [32]: 35%
- growth at 0.01 µM [33]: 96%
- GI50 [34]: 3.71 µM
- TGI [34]: 8.44 µM
- CC50 [34]: 19.2 µM
- growth at 1 µM [35]: 90%
- growth at 0.01 µM [36]: 96%
